Results: ChEMBL document CHEMBL1156361, “Structure-activity relationship of in vitro antiviral and cytotoxic activity of semisynthetic analogues of scopadulane diterpenes” (J Nat Prod, 2001)
≈ marks a conversion by molar mass, not a printed value. Calls of active or inactive are those of the source. No cut-off for these calls is given here.

Legend:
Vero = experiment: Cytotoxicity against african green monkey Vero cells by end-point titration technique; assay type: cell-based; details: chlorocebus sabaeus
CHO = experiment: Cytotoxicity against CHO cells after 48 hrs; assay type: cell-based, Cricetulus griseus; details: chinese hamster
[1] = Cytotoxicity against bovine Bon-Fib cells after 48 hrs; assay type: cell-based, Bos taurus; details: cattle
Human alphaherpesvirus 2 [2] = experiment: Antiviral activity against Herpes simplex virus 2 infected in african green monkey Vero cells assessed as maximal nontoxic dose that showed the highest viral reduction factor after 48 hrs by end-point titration technique; assay type: functional
Human alphaherpesvirus 2 [3] = experiment: Antiviral activity against Herpes simplex virus 2 infected in african green monkey Vero cells assessed as ratio of the viral titers in absence to presence of drug after 48 hrs by end-point titration technique; assay type: functional
HEp-2 = experiment: Cytotoxicity against human Hep2 cells after 48 hrs; assay type: functional
HeLa = experiment: Cytotoxicity against human HeLa cells after 48 hrs; assay type: functional
Human alphaherpesvirus 2 [4] = experiment: Antiviral activity against Herpes simplex virus 2 infected in african green monkey Vero cells assessed inhibition of virus-induced effect after 48 hrs by MTT assay; assay type: functional, organism-based; details: Human alphaherpesvirus 2, Vero
[5] = Cytotoxicity against african green monkey Vero cells by MTT assay; assay type: cell-based; details: chlorocebus sabaeus
[6] = Therapeutic index, ratio of CC50 for african green monkey Vero cells to IC50 for Herpes simplex virus 2 by MTT assay; assay type: cell-based; details: read-out: Ratio CC50/IC50

Row | Structure (SMILES) | CC100 (Vero) [µg/mL] | CC100 (CHO) [µg/mL] | CC100 [1] [µg/mL] | Activity (Human alphaherpesvirus 2 [2]) | Ratio (Human alphaherpesvirus 2 [3]) | CC100 (HEp-2) [µg/mL] | CC100 (HeLa) [µg/mL] | IC50 (Human alphaherpesvirus 2 [4]) [µg/mL] | CC50 [5] [µg/mL] | selectivity ratio [6]
1 | CC(=O)O[C@H]1C[C@H]2C(C)(C)CCC[C@]2(C)[C@@]23CC[C@](C)(C2)[C@H](OC(C)=O)C[C@H]13 [THYRSIFLORIN C DIACETATE] | 50 | 40 | 60 | 10 µg/mL | 5 | – | – | – | – | –
2 | COC(=O)CC(=O)O[C@@H]1C[C@@H]2[C@@H](OC(C)=O)C[C@H]3C(C)(C)CCC[C@]3(C)[C@]23CC[C@]1(C)C3 [METHYL THYRSIFLORIN B ACETATE] | 30 | 30 | 60 | 15 µg/mL | 5 | 30 | 30 | – | – | –
3 | CC1(C)CCC[C@@]2(C)[C@H]1C[C@H](O)[C@H]1C[C@@H](O)[C@]3(C)CC[C@]12C3 [THYRSIFLORIN C] | 30 | 45 | 60 | inactive | inactive | – | – | – | – | –
4 | CC(=O)O[C@H]1C[C@H]2C(C)(C)CCC[C@]2(C)[C@@]23CC[C@](C)(C2)[C@@H](O)C[C@H]13 | 50 | – | – | 25 µg/mL | 10 | – | – | – | – | –
5 | Nc1nc2c(ncn2COCCO)c(=O)[nH]1 [ACYCLOVIR] | > 600 | – | – | 6 µg/mL | 100000 | – | – | 4.21 (≈ 18.7 µM) | – | –
6 | CC1(C)CCC[C@@]2(C)[C@H]1C[C@@H](O)C1=CC(=O)[C@]3(C)CC[C@]12C3 | 28 | 20 | 10 | 14 µg/mL | 10 | – | – | – | – | –
7 | CC1(C)CCC[C@@]2(C)[C@H]1CCC1=CC(=O)[C@@]3(C)C[C@@]12CC3=O | 60 | – | – | 30 µg/mL | 10 | – | – | – | – | –
8 | CC1(C)CCC[C@@]2(C)[C@H]1CC[C@@]13CC(=O)[C@]4(C)CC1[C@]32C4 | 40 | – | – | 20 µg/mL | 10 | – | – | – | – | –
9 | CC1(C)CCC[C@@]2(C)[C@H]1C[C@H](O)[C@H]1CC(=O)[C@]3(C)CC[C@]12C3 | 48 | – | – | 10 µg/mL | 5 | – | – | – | – | –
10 | CC1(C)CCC[C@@]2(C)[C@H]1CCC1=CC(=O)[C@]3(C)CC[C@]12C3 | 40 | – | – | 20 µg/mL | 100 | – | – | 32.4 (≈ 113 µM) | 23.2 (≈ 81 µM) | 0.72
11 | COC(=O)CC(=O)O[C@@H]1C[C@@H]2CC[C@H]3C(C)(C)CCC[C@]3(C)[C@]23CC[C@]1(C)C3 [METHYL THYRSIFLORIN A] | 30 | 28 | 28 | 15 µg/mL | 5 | – | – | – | – | –
12 | CC1(C)CCC[C@@]2(C)[C@H]1C[C@@H](O)[C@@H]1CC(=O)[C@]3(C)CC[C@]12C3 | 60 | – | – | 30 µg/mL | 100 | – | – | 42.1 (≈ 138 µM) | 27.8 (≈ 91.3 µM) | 0.66
13 | CC1(C)CCCC2=C1CC[C@@]13CC[C@](C)(C[C@@]21C)C(=O)C3 | 35 | – | – | inactive | inactive | – | – | – | – | –
14 | CC1(C)CCC[C@@]2(C)[C@H]1CC[C@H]1CC(=O)[C@]3(C)CC[C@]12C3 | 28 | 24 | 24 | 14 µg/mL | 100 | – | – | 21 (≈ 72.9 µM) | 16.7 (≈ 57.9 µM) | 0.81
15 | CC1(C)CCC[C@@]2(C)[C@H]1CC[C@H]1C[C@@H](O)[C@]3(C)CC[C@]12C3 | 32 | – | – | 7.5 µg/mL | 100 | – | – | 16.5 (≈ 56.8 µM) | 19.5 (≈ 67.1 µM) | 1.25
